We go through two compounds from patent US9963467B2, “Boronic acid derivatives and therapeutic uses thereof” (Rempex Pharmaceuticals, Inc., priority 2014, dated 2018).

Series [1] has as its system KP1010 (SHV-12). The series is described as follows: Aztreonam potentiation (MPC@4), KP1010. As to conditions: read-out: Aztreonam MIC KP1010. The format is cell-based.
Series [2] concerns ECL1002. The series is described as follows: Aztreonam potentiation (MPC@4), ECL1002. The series is classed as cell-based.
In series [3] the test system is KP1004 (KPC-2). The series is described as follows: Aztreonam potentiation (MPC@4), KP1004. The format is cell-based.
In series [4] the test system is EC1010 (CMY-6). The series is described as follows: organism not typed. The series is classed as cell-based.
Series [5] concerns strains of various bacteria that are resistant to aztreonam due to expression of various β-lactamases. The series is described as follows: Aztreonam MIC of test strains. The series is classed as cell-based. To be noted: read-out: Aztreonam MICs of test strains; across the test strains.
Series [6] concerns KP1009 (CTX-M-15). The series is described as follows: organism not typed. The format is cell-based. As to conditions: read-out: Aztreonam MIC KP1009.
Series [7] relates to KP1005 (CTX-M-14). The series is described as follows: Aztreonam potentiation (MPC@4), KP1005. The format is cell-based.
The test system of series [8] is ec302 (TEM-10). The series is described as follows: Aztreonam potentiation (MPC@4), ec302. The format is cell-based.
The test system of series [9] is ec308 (SHV-5). The series is described as follows: Aztreonam potentiation (MPC@4), ec308. The series is classed as cell-based. As to conditions: read-out: Aztreonam MIC ec308.
Another series deals with KP1086 (OXA-48). The series is described as follows: Biapenem potentiation (MPC@1), KP1086. As to conditions: BLI with biapenem at 1 μg/mL.
The next series addresses CTX-M-14 (Escherichia coli, UniProt Q9L5C7). The series is described as follows: Ki, nitrocefin cleavage by purified enzyme, CTX-M-14. The format is biochemical. To be noted: nitrocefin reporter substrate; read-out: Ki (CTX-M-14, NCF). A digest of the protocol: (§1)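 Readout: nitrocefin hydrolysis, A490 recorded every 10 sec over 10 min. Enzyme and inhibitor (varied concentrations) preincubated 10 min, RT, in reaction buffer before substrate addition.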

Series [10] is described as follows: Intravenous pharmacokinetics. To be noted: rat, plasma; rats, 20 mg/kg, intravenous infusion over 0.5 hours; read-out: Free Cl (converted). The series is classed as in vivo. On the procedure: Rats (n=3 per compound) were administered by a single infusion. Intravenous doses were infused over 0.5 hours via an indwelling femoral vein cannula. […] (˜0.3 mL) samples were collected from each rat at designated time points up to 24 hours. Blood samples were centrifuged within 5 min of collection at 12000 g for 5 min to obtain plasma. The plasma samples were stored at −80° C. until analyzed. Data were analyzed using WinNonlin. The doses of all compounds tested were 20 mg/kg.

Series [11] deals with KP1005 (CTX-M-14). The series is described as follows: Tigemonam potentiation (MPC@4), KP1005. The series is classed as cell-based. To be noted: BLI with tigemonam at 4 μg/mL.
Series [12] deals with KP1009 (CTX-M-15). The series is described as follows: Tigemonam potentiation (MPC@4), KP1009. The format is cell-based. To be noted: BLI with tigemonam at 4 μg/mL.
Series [13] deals with ec308 (SHV-5). The series is described as follows: Tigemonam potentiation (MPC@4), ec308. The series is classed as cell-based.
In another series the target is KPC-2 (Klebsiella pneumoniae, UniProt Q9F663). The series is described as follows: Ki, nitrocefin cleavage by purified enzyme, KPC-2. The format is biochemical. As to conditions: nitrocefin reporter substrate; read-out: Ki (KPC-2, NCF). A digest of the protocol: as §1
Series [14] deals with ECL1002. The series is described as follows: Tigemonam potentiation (MPC@4), ECL1002. The format is cell-based. To be noted: BLI with tigemonam at 4 μg/mL.
Series [15] concerns EC1010 (CMY-6). The series is described as follows: Tigemonam potentiation (MPC@4), EC1010. The format is cell-based. To be noted: BLI with tigemonam at 4 μg/mL.
A further series deals with OXA-48 (Klebsiella pneumoniae, UniProt Q6XEC0). The series is described as follows: Ki, nitrocefin cleavage by purified enzyme, OXA-48. The format is biochemical. As to conditions: nitrocefin reporter substrate; read-out: Ki (OXA-48, NCF). In short, it runs like this:
as §1

Series [16] in a line: Monomer content of pH adjusted aqueous solutions (LC-UV). The format is physicochemical. To be noted: 1 mg/mL aqueous salt solution, pH adjusted to 7.6 to 8, LC-UV. In short, it runs like this:
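Aqueous solutions at 1.00, 10.0 or 100 mg/mL (active fraction) brought to pH 7.6–8 with acid or base, compound fully dissolved. Injected within half an hour of preparation onto C18 reversed-phase LC (0.1% TFA water / 0.085% TFA methanol gradient); UV detection at 220, 254 and 300 nm.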

The next series has as its target Pa AmpC (Pseudomonas aeruginosa, UniProt P24735). The series is described as follows: Ki, nitrocefin cleavage by purified enzyme, Pa AmpC. The series is classed as biochemical. As to conditions: nitrocefin reporter substrate; read-out: Ki (Pa AmpC, NCF). A digest of the protocol: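 Enzyme–inhibitor mixtures, spanning various inhibitor concentrations, were held 10 min at room temperature in reaction buffer prior to nitrocefin addition. Spectrophotometric monitoring of substrate cleavage at 490 nm then ran 10 min at 10-sec intervals to yield Ki.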

Series [17] relates to KP1010 (SHV-12). The series is described as follows: Tigemonam potentiation (MPC@4), KP1010. The format is cell-based.
For series [18], the system named is ec302 (TEM-10). The series is described as follows: Tigemonam potentiation (MPC@4), ec302. The series is classed as cell-based.
Series [19] concerns KP1004 (KPC-2). The series is described as follows: Biapenem potentiation (MPC@1), KP1004. As to conditions: BLI with biapenem at 1 μg/mL.
Another series deals with P99 (Enterobacter cloacae, UniProt P05364). The series is described as follows: Ki, nitrocefin cleavage by purified enzyme, P99. The format is biochemical. To be noted: nitrocefin reporter substrate; read-out: Ki (P99, NCF). A digest of the protocol:
as §1

The target of another series is SHV-12 (Klebsiella pneumoniae, UniProt P0AD64, E235K/G234S/L31Q). The series is described as follows: Ki, nitrocefin cleavage by purified enzyme, SHV-12. The format is biochemical. As to conditions: nitrocefin reporter substrate; read-out: Ki (SHV-12, NCF). In short, it runs like this: as §1
SHV-12, sequence (P0AD64 22-286 L31Q/G234S/E235K): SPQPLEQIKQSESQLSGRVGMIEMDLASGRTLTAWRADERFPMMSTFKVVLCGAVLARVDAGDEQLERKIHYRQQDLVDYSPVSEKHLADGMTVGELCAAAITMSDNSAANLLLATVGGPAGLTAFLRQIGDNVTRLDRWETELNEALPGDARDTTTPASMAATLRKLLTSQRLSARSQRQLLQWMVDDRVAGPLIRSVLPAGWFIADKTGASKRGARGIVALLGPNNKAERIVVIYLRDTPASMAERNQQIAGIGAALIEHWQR

Pa AmpC, sequence (P24735 27-397): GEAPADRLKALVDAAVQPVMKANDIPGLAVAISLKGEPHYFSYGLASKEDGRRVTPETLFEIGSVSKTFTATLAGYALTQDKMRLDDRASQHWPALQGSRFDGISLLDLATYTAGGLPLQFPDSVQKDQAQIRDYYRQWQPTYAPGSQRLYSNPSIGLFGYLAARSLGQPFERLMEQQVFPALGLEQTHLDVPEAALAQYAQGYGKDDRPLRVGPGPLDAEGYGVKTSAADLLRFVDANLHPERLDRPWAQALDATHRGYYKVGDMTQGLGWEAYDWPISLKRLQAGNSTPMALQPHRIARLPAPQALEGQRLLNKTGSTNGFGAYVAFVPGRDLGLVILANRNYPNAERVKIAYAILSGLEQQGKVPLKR
KPC-2, sequence (Q9F663 25-293, looked up, species assumed): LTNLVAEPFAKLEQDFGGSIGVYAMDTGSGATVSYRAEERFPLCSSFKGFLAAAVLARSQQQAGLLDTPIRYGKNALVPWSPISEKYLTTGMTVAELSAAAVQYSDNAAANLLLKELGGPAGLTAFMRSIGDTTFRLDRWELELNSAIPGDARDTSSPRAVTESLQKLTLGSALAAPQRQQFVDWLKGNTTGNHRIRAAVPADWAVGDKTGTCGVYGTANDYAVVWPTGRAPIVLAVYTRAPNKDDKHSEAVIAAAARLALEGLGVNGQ
P99, sequence (P05364 21-381): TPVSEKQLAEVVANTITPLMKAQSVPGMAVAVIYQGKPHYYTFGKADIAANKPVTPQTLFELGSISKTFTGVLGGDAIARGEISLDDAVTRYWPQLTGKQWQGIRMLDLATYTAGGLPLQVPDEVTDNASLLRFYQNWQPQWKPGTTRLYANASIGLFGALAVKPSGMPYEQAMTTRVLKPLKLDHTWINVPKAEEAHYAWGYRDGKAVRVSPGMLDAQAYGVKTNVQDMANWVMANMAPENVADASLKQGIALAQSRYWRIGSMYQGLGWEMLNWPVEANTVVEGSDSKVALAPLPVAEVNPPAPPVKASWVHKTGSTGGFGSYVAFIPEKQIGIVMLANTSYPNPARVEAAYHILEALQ
OXA-48, sequence (Q6XEC0 23-265, looked up, species assumed): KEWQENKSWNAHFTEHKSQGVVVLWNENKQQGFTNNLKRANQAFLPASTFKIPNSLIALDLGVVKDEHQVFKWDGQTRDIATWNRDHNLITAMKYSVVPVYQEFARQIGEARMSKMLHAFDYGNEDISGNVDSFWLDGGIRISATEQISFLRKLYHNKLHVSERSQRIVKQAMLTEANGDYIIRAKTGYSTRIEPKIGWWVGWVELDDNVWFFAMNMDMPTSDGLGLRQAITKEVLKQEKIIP
CTX-M-14, sequence (Q9L5C7 29-291): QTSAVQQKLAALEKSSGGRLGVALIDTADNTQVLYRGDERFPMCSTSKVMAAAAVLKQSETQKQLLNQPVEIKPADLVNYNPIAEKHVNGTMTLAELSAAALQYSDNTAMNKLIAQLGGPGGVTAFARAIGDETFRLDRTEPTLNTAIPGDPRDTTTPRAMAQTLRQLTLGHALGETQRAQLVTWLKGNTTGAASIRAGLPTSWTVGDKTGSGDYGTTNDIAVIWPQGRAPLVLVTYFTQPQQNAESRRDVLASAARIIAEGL

For `C[C@H]1[C@H](NC(=O)/C(=N\OC(C)(C)C(=O)O)c2csc(N)n2)C(=O)N1S(=O)(=O)O` [Aztreonam, reference compound], the MIC in the series on KP1010 (SHV-12) [1] is over 10 µg/mL; in the series on ECL1002 [2] (read-out: Aztreonam MIC ECL1002), over 10 µg/mL; in the series on KP1004 (KPC-2) [3] (read-out: Aztreonam MIC KP1004) it was over 10 µg/mL; in the series with EC1010 (CMY-6) [4] (read-out: Aztreonam MIC EC1010) it was over 10 µg/mL; in series [5], at least 64 µg/mL; with KP1009 (CTX-M-15) [6] it was over 10 µg/mL. Further, the MIC in the series with KP1005 (CTX-M-14) [7] (read-out: Aztreonam MIC KP1005), in the series with ec302 (TEM-10) [8] (read-out: Aztreonam MIC ec302) and with ec308 (SHV-5) [9] was over 10 µg/mL each time.

By Ki is commonly meant the equilibrium dissociation constant of an inhibitor or competing ligand from its target. On to `O=C(CSC(F)F)N[C@H]1Cc2ccc(F)c(C(=O)O)c2OB1O` [Compound 3, (R)-3-(2-(difluoromethylthio)acetamido)-7-fluoro-2-hydroxy-3,4-dihydro-2H-benzo[e][1,2]oxaborinine-8-carboxylic acid], for which the “BPM MPC1 OXA-48 KP1086” value with KP1086 (OXA-48) is on record as “Z (MIC of greater than 10 μg/mL)”. In addition, the Ki is under 0.001 µM at CTX-M-14; over 0.01 µM on KPC-2; 0.001 to 0.01 µM at OXA-48; over 0.01 µM at Pa AmpC; over 0.01 µM on P99; under 0.001 µM at SHV-12. The clearance in [10] was 13 mL/min/kg. Also, in the series with ECL1002 [2] (BLI with aztreonam at 4 μg/mL), the “AZT MPC4 ECL1002” value is “Y (MIC of 1 μg/mL to 10 μg/mL)”. Moreover, the “TIG MPC4 CTX-M-14 KP1005” value in the series with KP1005 (CTX-M-14) [11] is “X (MIC of less than 1 μg/mL)”. Besides, in the series with KP1009 (CTX-M-15) [12], the “TIG MPC4 CTX-M-15 KP1009” value is given as “X (MIC of less than 1 μg/mL)”. The “TIG MPC4 SHV-5 ec308” value in the series on ec308 (SHV-5) [13] is “X (key: X: MIC of less than 1 μg/mL; Y: MIC of 1 μg/mL to 10 μg/mL; Z: MIC of greater than 10 μg/mL)”. The “AZT MPC4 KPC-2 KP1004” value in the series with KP1004 (KPC-2) [3] (BLI with aztreonam at 4 μg/mL) is “Y (MIC of 1 μg/mL to 10 μg/mL)”. Also, the “TIG MPC4 ECL1002” value in the series on ECL1002 [14] is on record as “Y (MIC of 1 μg/mL to 10 μg/mL)”. Further, the “TIG MPC4 CMY-6 EC1010” value in the series on EC1010 (CMY-6) [15] is given as “X (MIC of less than 1 μg/mL)”. Further, the “% Monomer in 1 mg/mL salt solution” value in series [16] is listed as 99.8%. Besides, the “TIG MPC4 SHV-12 KP1010” value with KP1010 (SHV-12) [17] was “X (key: X: MIC of less than 1 μg/mL; Y: MIC of 1 μg/mL to 10 μg/mL; Z: MIC of greater than 10 μg/mL)”. Besides, the “TIG MPC4 TEM-10 ec302” value with ec302 (TEM-10) [18] is “Y (key: X: MIC of less than 1 ng/mL; Y: MIC of 1 μg/mL to 10 μg/mL; Z: MIC of greater than 10 μg/mL)”. Further, the “AZT MPC4 CMY-6 EC1010” value in the series with EC1010 (CMY-6) [4] is recorded as “Y (key: X: MIC of less than 1 ng/mL; Y: MIC of 1 μg/mL to 10 μg/mL; Z: MIC of greater than 10 μg/mL)”. In the series with KP1004 (KPC-2) [19], the “BPM MPC1 KP1004 KPC-2” value is “X (MIC of less than 1 μg/mL)”. Moreover, the “AZT MPC4 CTX-M-14 KP1005” value with KP1005 (CTX-M-14) [7] (BLI with aztreonam at 4 μg/mL) is reported as “Y (MIC of 1 μg/mL to 10 μg/mL)”. For the same compound, the “AZT MPC4 TEM-10 ec302” value in the series on ec302 (TEM-10) [8] (BLI with aztreonam at 4 μg/mL) is given as “X (MIC of less than 1 ng/mL)”.
